Test results as given in patent US20060069132A1, “Azolecarboxamide herbicides” (priority 2004, published 2006).

Tests used:
morningglory [1] = assay: Test A pre-/postemergence herbicide test; format: in vivo, Ipomoea spp.
Outline: (§1)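 Pre: seeded sandy loam, directed soil spray, compound in non-phytotoxic solvent + surfactant. Post: 1–2-leaf plants (2–10 cm), sprayed to runoff. Greenhouse ~10 d; visual injury vs untreated, 0–100 scale.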

barnyardgrass = assay: Test C flooded paddy test; format: in vivo, Echinochloa crus-galli; details: for Plant response rating, Barnyardgrass: 500 g ai/ha, visual rating after 12 to 14 days
Outline: (§2)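 Plants were grown to the 1- to 4-leaf stage (2–18 cm) and then treated postemergence, or grown to the 2-leaf stage for the flooded paddy test. They were held in a greenhouse for 12 to 14 days and then scored by eye against controls, where 0 is no effect and 100 is complete control.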

chickweed = assay: Test C postemergence herbicide test; format: in vivo, Stellaria media; details: for Chickweed plant response rating: 500 g ai/ha
Outline: as §2

morningglory [2] = assay: Test C pre-/postemergence herbicide test; format: in vivo, Ipomoea coccinea; set-up: key to Plant response rating, Morningglory: 0 = no effect, 100 = complete control; details: for Morningglory plant response rating: 500 g ai/ha
Outline: (§3)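 Visual injury scores run from 0 (no effect) to 100 (complete control), assessed relative to untreated controls 12 to 14 days after treatment in the greenhouse. Chemicals were formulated in a non-phytotoxic solvent mixture with surfactant and applied to soil after planting or to emerged plants at the 1- to 4-leaf stage.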

velvetleaf = assay: Test A pre-/postemergence herbicide test; format: in vivo, Abutilon theophrasti
Outline: as §1

common ragweed = assay: Test C pre-/postemergence herbicide test; format: in vivo, Ambrosia elatior; set-up: key to Plant response rating, Ragweed: 0 = no effect, 100 = complete control; details: for Ragweed plant response rating: 500 g ai/ha
Outline: as §3

yellow nutsedge = assay: Test C pre-/postemergence herbicide test; format: in vivo, Cyperus esculentus; details: for Nutsedge, Yellow plant response rating: 500 g ai/ha
Outline: as §3

giant foxtail = assay: Test C pre-/postemergence herbicide test; format: in vivo, Setaria faberi; details: for Foxtail, Giant plant response rating: 500 g ai/ha
Outline: as §3

lambsquarters = assay: Test C pre-/postemergence herbicide test; format: in vivo, Chenopodium album; details: for Lambsquarters plant response rating: 500 g ai/ha
Outline: as §3

redroot pigweed = assay: Test A pre-/postemergence herbicide test; format: in vivo, Amaranthus retroflexus
Outline: as §1

bermudagrass = assay: Test C pre-/postemergence herbicide test; format: in vivo, Cynodon dactylon; details: for Bermudagrass plant response rating: 500 g ai/ha
Outline: as §3

[3] = test system: smallflower umbrella sedge; assay: Test C flooded paddy test; format: in vivo, Cyperus difformis; details: for Plant response rating, Sedge, Umbrella: 500 g ai/ha, visual rating after 12 to 14 days
eastern black nightshade = assay: Test C pre-/postemergence herbicide test; format: in vivo, Solanum ptycanthum; details: for Plant response rating (0 = no effect, 100 = complete control), Nightshade: 62 g ai/ha; for Plant response rating (0 = no effect, 100 = complete control), Nightshade / Plant response rating, Nightshade: preemergence; for Plant response rating, Nightshade: 125 g ai/ha, scale 0 (no effect) to 100 (complete control), visual, 12 to 14 days; for Nightshade plant response rating: Preemergence, 500 g ai/ha, scale 0 to 100, 0 no effect, 100 complete control
Outline: as §3

[4] = Postemergence, 500 g ai/ha, 0 to 100 scale, 0 no effect, 100 complete control
[5] = Postemergence, 2000 g ai/ha, 0 to 100 scale, 0 no effect, 100 complete control
[6] = Preemergence, 500 g ai/ha, visual rating, 0 to 100 scale (0 no effect, 100 complete control)
[7] = Preemergence, 2000 g ai/ha, 0 to 100 scale, 0 no effect, 100 complete control
[8] = 62 g ai/ha, scale 0 to 100 (0 no effect, 100 complete control)
[9] = 125 g ai/ha, scale of 0 to 100, 0 is no effect, 100 is complete control
[10] = 250 g ai/ha, scale of 0 to 100, 0 is no effect, 100 is complete control
[11] = scale 0 to 100 (0 no effect, 100 complete control)
[12] = Postemergence, 250 g ai/ha, scale 0 to 100, 0 no effect, 100 complete control
[13] = postemergence, 125 g ai/ha, scale 0 to 100
[14] = postemergence, 62 g ai/ha, scale 0 to 100
[15] = 125 g ai/ha, scale 0 (no effect) to 100 (complete control), visual, 12 to 14 days, preemergence
[16] = Preemergence, scale 0 to 100, 0 no effect, 100 complete control
[17] = Preemergence, 2000 g ai/ha, visual rating, 0 to 100 scale (0 no effect, 100 complete control)
[18] = 250 g ai/ha, scale 0 to 100 (0 no effect, 100 complete control), visual, 12 to 14 days, preemergence

CCOC(=O)c1cc(NC(=O)c2cc(C(C)(C)C)nn2CC)ccc1OC [Compound 96]
Morningglory plant response rating (morningglory [1]; [4]): 10 | Plant response rating, Morningglory (morningglory [1]; [5]): 15 | Morningglory plant response rating (morningglory [1]; [6]): 25 | Morningglory plant response rating (morningglory [1]; [7]): 70 | Barnyardgrass plant response rating (barnyardgrass; [8]): 45 | Barnyardgrass plant response rating (barnyardgrass; [9]): 45 | Barnyardgrass plant response rating (barnyardgrass; [10]): 70 | Plant response rating, Barnyardgrass (barnyardgrass; [11]): 80 | Chickweed plant response rating (chickweed; Postemergence, scale 0 to 100): 100 | Plant response rating, Chickweed (chickweed; [12]): 100 | Plant response rating, Chickweed (chickweed; [13]): 100 | Plant response rating, Chickweed (chickweed; [14]): 100 | Plant response rating (0 = no effect, 100 = complete control), Morningglory (morningglory [2]; 62 g ai/ha, preemergence): 0 | Plant response rating, Morningglory (morningglory [2]; [15]): 50 | Morningglory plant response rating (morningglory [2]; Postemergence, scale 0 to 100): 50 | Plant response rating, Morningglory (morningglory [2]; [12]): 30 | Morningglory plant response rating (morningglory [2]; [16]): 100 | Plant response rating, Morningglory (morningglory [2]; [13]): 5 | Plant response rating, Morningglory (morningglory [2]; [14]): 0 | Velvetleaf plant response rating (velvetleaf; [4]): 70 | Plant response rating, Velvetleaf (velvetleaf; [5]): 70 | Velvetleaf plant response rating (velvetleaf; [6]): 95 | Velvetleaf plant response rating (velvetleaf; [17]): 100 | Plant response rating (0 = no effect, 100 = complete control), Ragweed (common ragweed; 62 g ai/ha, preemergence): 50 | Plant response rating, Ragweed (common ragweed; [15]): 90 | Ragweed plant response rating (common ragweed; Postemergence, scale 0 to 100): 85 | Plant response rating, Ragweed (common ragweed; [12]): 80 | Ragweed plant response rating (common ragweed; [16]): 100 | Plant response rating, Ragweed (common ragweed; [13]): 50 | Plant response rating, Ragweed (common ragweed; [14]): 50 | Plant response rating (0 = no effect, 100 = complete control), Nutsedge, Yellow (yellow nutsedge; 62 g ai/ha, preemergence): 0 | Plant response rating, Nutsedge, Yellow (yellow nutsedge; [15]): 0 | Nutsedge, Yellow plant response rating (yellow nutsedge; Postemergence, scale 0 to 100): 5 | Plant response rating, Nutsedge, Yellow (yellow nutsedge; [12]): 5 | Nutsedge, Yellow plant response rating (yellow nutsedge; [16]): 10 | Plant response rating, Nutsedge, Yellow (yellow nutsedge; [13]): 0 | Plant response rating, Nutsedge, Yellow (yellow nutsedge; [14]): 0 | Plant response rating (0 = no effect, 100 = complete control), Foxtail, Giant (giant foxtail; 62 g ai/ha, preemergence): 70 | Plant response rating, Foxtail, Giant (giant foxtail; [15]): 100 | Plant response rating, Foxtail, Giant (giant foxtail; [18]): 100 | Foxtail, Giant plant response rating (giant foxtail; Postemergence, scale 0 to 100): 60 | Plant response rating, Foxtail, Giant (giant foxtail; [12]): 45 | Foxtail, Giant plant response rating (giant foxtail; [16]): 100 | Plant response rating, Foxtail, Giant (giant foxtail; [13]): 20 | Plant response rating, Foxtail, Giant (giant foxtail; [14]): 10 | Lambsquarters plant response rating (lambsquarters; Postemergence, scale 0 to 100): 100 | Plant response rating, Lambsquarters (lambsquarters; [12]): 95 | Plant response rating, Lambsquarters (lambsquarters; [13]): 80 | Plant response rating, Lambsquarters (lambsquarters; [14]): 60 | Pigweed plant response rating (redroot pigweed; [4]): 95 | Plant response rating, Pigweed (redroot pigweed; [5]): 100 | Pigweed plant response rating (redroot pigweed; [6]): 100 | Pigweed plant response rating (redroot pigweed; [7]): 100 | Plant response rating (0 = no effect, 100 = complete control), Bermudagrass (bermudagrass; 62 g ai/ha, preemergence): 40 | Plant response rating, Bermudagrass (bermudagrass; [15]): 80 | Plant response rating, Bermudagrass (bermudagrass; [18]): 85 | Bermudagrass plant response rating (bermudagrass; Postemergence, scale 0 to 100): 5 | Plant response rating, Bermudagrass (bermudagrass; [12]): 5 | Bermudagrass plant response rating (bermudagrass; [16]): 100 | Plant response rating, Bermudagrass (bermudagrass; [13]): 0 | Plant response rating, Bermudagrass (bermudagrass; [14]): 0 | Sedge, Umbrella plant response rating [3, 8]: 90 | Sedge, Umbrella plant response rating [3, 9]: 90 | Sedge, Umbrella plant response rating [3, 10]: 90 | Plant response rating, Sedge, Umbrella [3, 11]: 95 | Plant response rating (0 = no effect, 100 = complete control), Nightshade (eastern black nightshade): 90 | Plant response rating, Nightshade (eastern black nightshade): 95 | Nightshade plant response rating (eastern black nightshade): 100

CC(=NO)c1cccc(NC(=O)c2cc(C(C)(C)C)nn2CCF)c1 [Compound 115]
Morningglory plant response rating (morningglory [1]; [4]): 35 | Plant response rating, Morningglory (morningglory [1]; [5]): 30 | Morningglory plant response rating (morningglory [1]; [6]): 70 | Morningglory plant response rating (morningglory [1]; [17]): 90 | Barnyardgrass plant response rating (barnyardgrass; [8]): 30 | Barnyardgrass plant response rating (barnyardgrass; [9]): 45 | Barnyardgrass plant response rating (barnyardgrass; [10]): 65 | Plant response rating, Barnyardgrass (barnyardgrass; [11]): 75 | Chickweed plant response rating (chickweed; Postemergence, scale 0 to 100): 100 | Plant response rating, Chickweed (chickweed; [12]): 100 | Plant response rating, Chickweed (chickweed; [13]): 100 | Plant response rating, Chickweed (chickweed; [14]): 100 | Plant response rating, Morningglory (morningglory [2]; [15]): 30 | Morningglory plant response rating (morningglory [2]; Postemergence, scale 0 to 100): 100 | Morningglory plant response rating (morningglory [2]; [16]): 80 | Plant response rating, Morningglory (morningglory [2]; [13]): 80 | Plant response rating, Morningglory (morningglory [2]; [14]): 50 | Velvetleaf plant response rating (velvetleaf; [4]): 40 | Plant response rating, Velvetleaf (velvetleaf; [5]): 40 | Velvetleaf plant response rating (velvetleaf; [6]): 85 | Velvetleaf plant response rating (velvetleaf; [17]): 95 | Plant response rating (0 = no effect, 100 = complete control), Ragweed (common ragweed; 62 g ai/ha, preemergence): 70 | Plant response rating, Ragweed (common ragweed; [15]): 80 | Ragweed plant response rating (common ragweed; Postemergence, scale 0 to 100): 90 | Plant response rating, Ragweed (common ragweed; [12]): 70 | Ragweed plant response rating (common ragweed; [16]): 100 | Plant response rating, Ragweed (common ragweed; [13]): 70 | Plant response rating, Ragweed (common ragweed; [14]): 70 | Plant response rating (0 = no effect, 100 = complete control), Nutsedge, Yellow (yellow nutsedge; 62 g ai/ha, preemergence): 0 | Plant response rating, Nutsedge, Yellow (yellow nutsedge; [15]): 0 | Nutsedge, Yellow plant response rating (yellow nutsedge; Postemergence, scale 0 to 100): 30 | Plant response rating, Nutsedge, Yellow (yellow nutsedge; [12]): 30 | Nutsedge, Yellow plant response rating (yellow nutsedge; [16]): 20 | Plant response rating, Nutsedge, Yellow (yellow nutsedge; [13]): 10 | Plant response rating, Nutsedge, Yellow (yellow nutsedge; [14]): 0 | Plant response rating (0 = no effect, 100 = complete control), Foxtail, Giant (giant foxtail; 62 g ai/ha, preemergence): 40 | Plant response rating, Foxtail, Giant (giant foxtail; [15]): 90 | Plant response rating, Foxtail, Giant (giant foxtail; [18]): 100 | Foxtail, Giant plant response rating (giant foxtail; Postemergence, scale 0 to 100): 80 | Plant response rating, Foxtail, Giant (giant foxtail; [12]): 60 | Foxtail, Giant plant response rating (giant foxtail; [16]): 100 | Plant response rating, Foxtail, Giant (giant foxtail; [13]): 40 | Plant response rating, Foxtail, Giant (giant foxtail; [14]): 40 | Plant response rating (0 = no effect, 100 = complete control), Lambsquarters (lambsquarters; 62 g ai/ha, preemergence): 100 | Plant response rating, Lambsquarters (lambsquarters; [15]): 100 | Lambsquarters plant response rating (lambsquarters; Postemergence, scale 0 to 100): 100 | Plant response rating, Lambsquarters (lambsquarters; [12]): 100 | Lambsquarters plant response rating (lambsquarters; [16]): 100 | Plant response rating, Lambsquarters (lambsquarters; [13]): 100 | Plant response rating, Lambsquarters (lambsquarters; [14]): 100 | Pigweed plant response rating (redroot pigweed; [4]): 95 | Plant response rating, Pigweed (redroot pigweed; [5]): 100 | Pigweed plant response rating (redroot pigweed; [6]): 95 | Pigweed plant response rating (redroot pigweed; [17]): 100 | Plant response rating (0 = no effect, 100 = complete control), Bermudagrass (bermudagrass; 62 g ai/ha, preemergence): 100 | Plant response rating, Bermudagrass (bermudagrass; [15]): 100 | Plant response rating, Bermudagrass (bermudagrass; [18]): 100 | Bermudagrass plant response rating (bermudagrass; Postemergence, scale 0 to 100): 100 | Plant response rating, Bermudagrass (bermudagrass; [12]): 60 | Bermudagrass plant response rating (bermudagrass; [16]): 100 | Plant response rating, Bermudagrass (bermudagrass; [13]): 60 | Plant response rating, Bermudagrass (bermudagrass; [14]): 10 | Sedge, Umbrella plant response rating [3, 8]: 80 | Sedge, Umbrella plant response rating [3, 9]: 85 | Sedge, Umbrella plant response rating [3, 10]: 90 | Plant response rating, Sedge, Umbrella [3, 11]: 95 | Plant response rating (0 = no effect, 100 = complete control), Nightshade (eastern black nightshade): 100 | Plant response rating, Nightshade (eastern black nightshade): 100 | Nightshade plant response rating (eastern black nightshade): 100
